The results in this text go back to US20050261264A1, “Rare-earth ternary complex” (priority 2000, published 2005).

Assay type in all cases: physicochemical
Data set [1] can be described thus: Miscibility with a polymer matrix, visual evaluation. Set-up: key to Miscibility, PMMA: ⊚: dissolves up to 30 wt %; ◯: dissolves up to 5 wt %; Δ: disperses up to 5 wt %, but there is turbidity; X: repelled at the polymer surface. As for the experimental part:
(§1) The miscibility of the rare earth complex with various media was evaluated as follows.
2) Miscibility with a Polymer Matrix
The rare earth complex serving as the sample was added in the concentrations listed with the evaluation criteria below relative to various media, and the miscibility was visually evaluated according to the following criteria. • ⊚: dissolves up to 30 wt % • ◯: dissolves up to 5 wt % • Δ: disperses up to 5 wt %, but there is turbidity • X: repelled at the polymer surface

The nature of data set [2]: Miscibility with solvents, visual evaluation at 5 wt %. Also noted: key: ⊚: dissolves at room temperature; ◯: dissolves when heated for 5 minutes at 40° C.; Δ: dissolves under heating, but cooling precipitates crystals; X: does not dissolve. Conditions: complex added at 5 wt %. As for the experimental part:
as §1
1) Miscibility with Solvents

Data set [3] in a line: Number of moles of bound water per mole of complex (TG-DTA). Conditions: for Bound water (number of moles of bound water per mole of complex): Table 1, dried samples for the ternary complexes. As for the experimental part:
The number of moles of bound water per mole of complex was measured using a TG-DTA 2000 from MAC Science.
A 20 g quantity of Eu(PMS)3 was added to 100 mL of isopropanol, then 43 g ([…] the molar amount of the Eu(PMS)3) of triphenylphosphine oxide (hereinafter referred to as TPPO) was added, and the system was refluxed for 3 hours, and then gradually cooled. The resulting white powder was filtered off. The white powder thus obtained was washed with hot n-hexane, and recrystallized with water-methanol to obtain 44 g of Eu(PMS)3(TPPO)8 in the form of white acicular crystals (yield: 85%). The TG-DTA was measured for these crystals, and it was found from the weight reduction at 100° C. that the number of moles of bound water per mole of complex was 2.93. The IR, NMR, UV absorption characteristics, and elemental analysis results for the obtained Eu(PMS)3(TPPO)8(H2O)2.93 are given below.
Eu(PMS)3(TPPO)8(H2O)2.93 obtained by the above synthesis method was dried in vacuo for 3 hours at 140° C. and a reduced pressure of […]. TG-DTA measurement for the resulting white powder was carried out to obtain a weight reduction at 100° C. It was found from the obtained value that the number of moles of bound water per mole of complex was 0.18.

[4] abbreviates: after drying in vacuo at 140° C.
Where [5] appears, read: before drying (crystals as obtained), weight reduction at 100° C.

Turning to `O=P(c1ccccc1)(c1ccccc1)c1ccccc1.O=P(c1ccccc1)(c1ccccc1)c1ccccc1.O=P(c1ccccc1)(c1ccccc1)c1ccccc1.O=P(c1ccccc1)(c1ccccc1)c1ccccc1.O=P(c1ccccc1)(c1ccccc1)c1ccccc1.O=P(c1ccccc1)(c1ccccc1)c1ccccc1.O=P(c1ccccc1)(c1ccccc1)c1ccccc1.O=P(c1ccccc1)(c1ccccc1)c1ccccc1.O=S(=O)([N-]S(=O)(=O)C(F)(F)C(F)(F)F)C(F)(F)C(F)(F)F.O=S(=O)([N-]S(=O)(=O)C(F)(F)C(F)(F)F)C(F)(F)C(F)(F)F.O=S(=O)([N-]S(=O)(=O)C(F)(F)C(F)(F)F)C(F)(F)C(F)(F)F.[Eu+3]` [Eu(PES)3(TPPO)8], in data set [1], the “Miscibility, Epoxy resin” value is “◯ (dissolves up to 5 wt %)”; the “Miscibility, Nafion” value is “◯ (dissolves up to 5 wt %)”; the “Miscibility, PMMA” value was “◯ (dissolves up to 5 wt %)”. Further, in data set [2], the “Miscibility, Acetone” value was “⊚”; the “Miscibility, Chloroform” value is recorded as “⊚”; the “Miscibility, Toluene” value is on record as “◯”; the “Miscibility, Water” value is “X”. In data set [3], the “Bound water (number of moles of bound water per mole of complex)” value worked out at 0.19. Besides, the “Number of moles of bound water per mole of complex” value in data set [3] (setting [4]) is listed as 0.19.
For `O=C(C=C([O-])C(F)(F)F)C(F)(F)F.O=C(C=C([O-])C(F)(F)F)C(F)(F)F.O=C(C=C([O-])C(F)(F)F)C(F)(F)F.O=P(c1ccccc1)(c1ccccc1)c1ccccc1.O=P(c1ccccc1)(c1ccccc1)c1ccccc1.[Nd+3]` [Nd(HFA)3(TPPO)2, reference compound], in data set [1], the “Miscibility, Epoxy resin” value is “◯ (dissolves up to 5 wt %)”; the “Miscibility, Nafion” value is on record as “Δ (disperses up to 5 wt %, but there is turbidity)”; the “Miscibility, PMMA” value was “Δ (disperses up to 5 wt %, but there is turbidity)”. In addition, in data set [2], the “Miscibility, Acetone” value is given as “⊚”; the “Miscibility, Chloroform” value is “◯”; the “Miscibility, Toluene” value is “◯”; the “Miscibility, Water” value is reported as “X”. Moreover, the “Bound water (number of moles of bound water per mole of complex)” value in data set [3] was found to be 0.00.
`O=C(C=C([O-])C(F)(F)F)C(F)(F)F.O=C(C=C([O-])C(F)(F)F)C(F)(F)F.O=C(C=C([O-])C(F)(F)F)C(F)(F)F.[Nd+3]` [Nd(HFA)3, reference compound]: in data set [1], the “Miscibility, Epoxy resin” value is given as “◯ (dissolves up to 5 wt %)”; the “Miscibility, Nafion” value is recorded as “Δ (disperses up to 5 wt %, but there is turbidity)”; the “Miscibility, PMMA” value is “X”. In data set [2], the “Miscibility, Acetone” value is “⊚”; the “Miscibility, Chloroform” value is given as “X”; the “Miscibility, Toluene” value is given as “X”; the “Miscibility, Water” value was “X”. In addition, in data set [3], the “Bound water (number of moles of bound water per mole of complex)” value was found to be 2.00.
Regarding `O=S(=O)([N-]S(=O)(=O)C(F)(F)F)C(F)(F)F.O=S(=O)([N-]S(=O)(=O)C(F)(F)F)C(F)(F)F.O=S(=O)([N-]S(=O)(=O)C(F)(F)F)C(F)(F)F.[Nd+3].c1cnc2c(c1)ccc1cccnc12.c1cnc2c(c1)ccc1cccnc12.c1cnc2c(c1)ccc1cccnc12.c1cnc2c(c1)ccc1cccnc12` [Nd(PMS)3(Phen)m], in data set [1], the “Miscibility, Epoxy resin” value is reported as “◯ (dissolves up to 5 wt %)”; the “Miscibility, Nafion” value was “◯ (dissolves up to 5 wt %)”; the “Miscibility, PMMA” value is on record as “◯ (dissolves up to 5 wt %)”. Further, in data set [2], the “Miscibility, Acetone” value is “⊚”; the “Miscibility, Chloroform” value is recorded as “Δ”; the “Miscibility, Toluene” value was “Δ”; the “Miscibility, Water” value is “X”. For the same compound, in data set [3], the “Bound water (number of moles of bound water per mole of complex)” value worked out at 0.00.
As to `O=S(=O)([N-]S(=O)(=O)C(F)(F)F)C(F)(F)F.O=S(=O)([N-]S(=O)(=O)C(F)(F)F)C(F)(F)F.O=S(=O)([N-]S(=O)(=O)C(F)(F)F)C(F)(F)F.O=S(c1ccccc1)c1ccccc1.O=S(c1ccccc1)c1ccccc1.O=S(c1ccccc1)c1ccccc1.O=S(c1ccccc1)c1ccccc1.O=S(c1ccccc1)c1ccccc1.O=S(c1ccccc1)c1ccccc1.O=S(c1ccccc1)c1ccccc1.O=S(c1ccccc1)c1ccccc1.[Tb+3]` [Tb(PMS)3(DPSO)8], in data set [1], the “Miscibility, Epoxy resin” value was “◯ (dissolves up to 5 wt %)”; the “Miscibility, Nafion” value was “◯ (dissolves up to 5 wt %)”; the “Miscibility, PMMA” value is listed as “◯ (dissolves up to 5 wt %)”. Also, in data set [2], the “Miscibility, Acetone” value is “⊚”; the “Miscibility, Chloroform” value was “◯”; the “Miscibility, Toluene” value is reported as “◯”; the “Miscibility, Water” value was “X”. The “Bound water (number of moles of bound water per mole of complex)” value in data set [3] is 0.00.
Regarding `O=P(c1ccccc1)(c1ccccc1)c1ccccc1.O=P(c1ccccc1)(c1ccccc1)c1ccccc1.O=P(c1ccccc1)(c1ccccc1)c1ccccc1.O=P(c1ccccc1)(c1ccccc1)c1ccccc1.O=P(c1ccccc1)(c1ccccc1)c1ccccc1.O=P(c1ccccc1)(c1ccccc1)c1ccccc1.O=P(c1ccccc1)(c1ccccc1)c1ccccc1.O=P(c1ccccc1)(c1ccccc1)c1ccccc1.O=S(=O)([N-]S(=O)(=O)C(F)(F)F)C(F)(F)F.O=S(=O)([N-]S(=O)(=O)C(F)(F)F)C(F)(F)F.O=S(=O)([N-]S(=O)(=O)C(F)(F)F)C(F)(F)F.[Tb+3]` [Tb(PMS)3(TPPO)8], in data set [1], the “Miscibility, Epoxy resin” value is “◯ (dissolves up to 5 wt %)”; the “Miscibility, Nafion” value is given as “◯ (dissolves up to 5 wt %)”; the “Miscibility, PMMA” value is given as “◯ (dissolves up to 5 wt %)”. In data set [2], the “Miscibility, Acetone” value is listed as “⊚”; the “Miscibility, Chloroform” value is “⊚”; the “Miscibility, Toluene” value is given as “◯”; the “Miscibility, Water” value was “X”. In addition, the “Bound water (number of moles of bound water per mole of complex)” value in data set [3] amounted to 0.08. In data set [3] (setting [4]), the “Number of moles of bound water per mole of complex” value is 0.08. For the same compound, the “Number of moles of bound water per mole of complex” value in data set [3] (setting [5]) stood at 1.27.
For the compound `O=P(c1ccccc1)(c1ccccc1)c1ccccc1.O=P(c1ccccc1)(c1ccccc1)c1ccccc1.O=P(c1ccccc1)(c1ccccc1)c1ccccc1.O=P(c1ccccc1)(c1ccccc1)c1ccccc1.O=P(c1ccccc1)(c1ccccc1)c1ccccc1.O=P(c1ccccc1)(c1ccccc1)c1ccccc1.O=P(c1ccccc1)(c1ccccc1)c1ccccc1.O=P(c1ccccc1)(c1ccccc1)c1ccccc1.O=S(=O)([N-]S(=O)(=O)C(F)(F)F)C(F)(F)F.O=S(=O)([N-]S(=O)(=O)C(F)(F)F)C(F)(F)F.O=S(=O)([N-]S(=O)(=O)C(F)(F)F)C(F)(F)F.[Yb+3]` [Yb(PMS)3(TPPO)8], in data set [1], the “Miscibility, Epoxy resin” value is reported as “◯ (dissolves up to 5 wt %)”; the “Miscibility, Nafion” value is “◯ (dissolves up to 5 wt %)”; the “Miscibility, PMMA” value was “◯ (dissolves up to 5 wt %)”. Further, in data set [2], the “Miscibility, Acetone” value was “⊚”; the “Miscibility, Chloroform” value was “⊚”; the “Miscibility, Toluene” value is “◯”; the “Miscibility, Water” value was “X”. The “Bound water (number of moles of bound water per mole of complex)” value in data set [3] was determined as 0.27. In addition, the “Number of moles of bound water per mole of complex” value in data set [3] (setting [4]) came to 0.27. Further, in data set [3] (setting [5]), the “Number of moles of bound water per mole of complex” value is listed as 1.52.
